Results published in ChEMBL document CHEMBL5528042, “Identification of Novel, Selective Ataxia-Telangiectasia Mutated Kinase Inhibitors with the Ability to Penetrate the Blood-Brain Barrier: The Discovery of AZD1390” (J Med Chem, 2024).
≈ marks a conversion by molar mass, not a printed value.

What was measured:
[1] = Lipophilicity, logD of the compound at pH 7.4; format: physicochemical; conditions: buffer
[2] = Aqueous solubility of the compound in pH 7.4; format: physicochemical; conditions: buffer
[3] = Apparent permeability across apical to basolateral side in dog MDCKII-MDR1 cells overexpressing BCRP at 0.1 uM incubated for 90 mins by LC-MS/MS analysis; format: ADME, cell-based, Canis lupus familiaris, MDCK-MDR1
[4] = Apparent permeability across apical to basolateral side in dog MDCKII-MDR1 cells overexpressing BCRP at 1 uM incubated for 90 mins by LC-MS/MS analysis; format: ADME, cell-based, Canis lupus familiaris, MDCK-MDR1
[5] = Intrinsic clearance in human hepatocyte assessed per 10^6 cells; format: ADME, cell-based; conditions: hepatocytes, read-out: CLH
[6] = Intrinsic clearance in rat hepatocyte assessed per 10^6 cells; format: ADME, cell-based; conditions: hepatocytes, read-out: CLH
[7] = target: Serine/threonine-protein kinase ATR (Homo sapiens, UniProt Q13535); experiment: Inhibition of ATR in human HT-29 cells incubated for 2 hrs by Alexa Fluor 488/Hoeschst staining based plate reader assay; format: cell-based
[8] = target: Phosphatidylinositol 4,5-bisphosphate 3-kinase catalytic subunit alpha isoform (Homo sapiens, UniProt P42336); experiment: Inhibition of PI3Kalpha in human BT-474 cells incubated for 140 mins by ELISA; format: cell-based
[9] = target: Serine/threonine-protein kinase mTOR (Homo sapiens, UniProt P42345); experiment: Inhibition of mTOR in human MDA-MB-468 cells incubated for 2.5 hrs by Alexa Fluor 488 staining based fluorescence analysis; format: cell-based
[10] = target: DNA-dependent protein kinase catalytic subunit (Homo sapiens, UniProt P78527); experiment: Inhibition of DNA-PK (unknown origin)
[11] = Plasma protein binding in rat assessed as unbound fraction incubated for 16 hrs by equilibrium dialysis based UPLC-MS/MS analysis; format: ADME, cell-free
[12] = Plasma protein binding in dog assessed as unbound fraction incubated for 16 hrs by equilibrium dialysis based UPLC-MS/MS analysis; format: ADME, cell-free, Canis lupus familiaris
[13] = Plasma protein binding in human assessed as unbound fraction incubated for 16 hrs by equilibrium dialysis based UPLC-MS/MS analysis; format: ADME, cell-free
[14] = Volume of distribution at steady state in rat at 1 mg/kg,po or 0.5 mg/kg,iv administration measured for 24 hrs by LC-MS/MS analysis; format: ADME, organism-based; conditions: in vivo
[15] = Half life in rat at 1 mg/kg,po or 0.5 mg/kg,iv administration measured for 24 hrs by LC-MS/MS analysis; format: ADME, organism-based; conditions: in vivo
[16] = Bioavailability in rat at 1 mg/kg,po or 0.5 mg/kg,iv administration measured for 24 hrs by LC-MS/MS analysis; format: ADME, organism-based; conditions: in vivo
[17] = Volume of distribution at steady state in dog at 2 mg/kg,po or 1 mg/kg,iv administration measured for 24 hrs by LC-MS/MS analysis; format: ADME, organism-based, Canis lupus familiaris; conditions: in vivo
[18] = Half life in dog at 2 mg/kg,po or 1 mg/kg,iv administration measured for 24 hrs by LC-MS/MS analysis; format: ADME, organism-based, Canis lupus familiaris; conditions: in vivo
[19] = Bioavailability in dog at 2 mg/kg,po or 1 mg/kg,iv administration measured for 24 hrs by LC-MS/MS analysis; format: ADME, organism-based, Canis lupus familiaris; conditions: in vivo
[20] = target: Serine-protein kinase ATM (Homo sapiens, UniProt Q13315); experiment: Inhibition of ATM in human HT-29 cells incubated for 2 hrs by Alexa Fluor 488/Hoeschst staining based plate reader assay; format: cell-based
[21] = Dissociation constant, pKa of compound; format: physicochemical
[22] = Tmax in Cynomolgus monkey at iv administered as bolus injection measured at 4 to 90 mins by gamma counter analysis; format: ADME, organism-based, Macaca fascicularis; conditions: in vivo, time 4-90 min

Sequence of DNA-dependent protein kinase catalytic subunit (P78527 whole entry): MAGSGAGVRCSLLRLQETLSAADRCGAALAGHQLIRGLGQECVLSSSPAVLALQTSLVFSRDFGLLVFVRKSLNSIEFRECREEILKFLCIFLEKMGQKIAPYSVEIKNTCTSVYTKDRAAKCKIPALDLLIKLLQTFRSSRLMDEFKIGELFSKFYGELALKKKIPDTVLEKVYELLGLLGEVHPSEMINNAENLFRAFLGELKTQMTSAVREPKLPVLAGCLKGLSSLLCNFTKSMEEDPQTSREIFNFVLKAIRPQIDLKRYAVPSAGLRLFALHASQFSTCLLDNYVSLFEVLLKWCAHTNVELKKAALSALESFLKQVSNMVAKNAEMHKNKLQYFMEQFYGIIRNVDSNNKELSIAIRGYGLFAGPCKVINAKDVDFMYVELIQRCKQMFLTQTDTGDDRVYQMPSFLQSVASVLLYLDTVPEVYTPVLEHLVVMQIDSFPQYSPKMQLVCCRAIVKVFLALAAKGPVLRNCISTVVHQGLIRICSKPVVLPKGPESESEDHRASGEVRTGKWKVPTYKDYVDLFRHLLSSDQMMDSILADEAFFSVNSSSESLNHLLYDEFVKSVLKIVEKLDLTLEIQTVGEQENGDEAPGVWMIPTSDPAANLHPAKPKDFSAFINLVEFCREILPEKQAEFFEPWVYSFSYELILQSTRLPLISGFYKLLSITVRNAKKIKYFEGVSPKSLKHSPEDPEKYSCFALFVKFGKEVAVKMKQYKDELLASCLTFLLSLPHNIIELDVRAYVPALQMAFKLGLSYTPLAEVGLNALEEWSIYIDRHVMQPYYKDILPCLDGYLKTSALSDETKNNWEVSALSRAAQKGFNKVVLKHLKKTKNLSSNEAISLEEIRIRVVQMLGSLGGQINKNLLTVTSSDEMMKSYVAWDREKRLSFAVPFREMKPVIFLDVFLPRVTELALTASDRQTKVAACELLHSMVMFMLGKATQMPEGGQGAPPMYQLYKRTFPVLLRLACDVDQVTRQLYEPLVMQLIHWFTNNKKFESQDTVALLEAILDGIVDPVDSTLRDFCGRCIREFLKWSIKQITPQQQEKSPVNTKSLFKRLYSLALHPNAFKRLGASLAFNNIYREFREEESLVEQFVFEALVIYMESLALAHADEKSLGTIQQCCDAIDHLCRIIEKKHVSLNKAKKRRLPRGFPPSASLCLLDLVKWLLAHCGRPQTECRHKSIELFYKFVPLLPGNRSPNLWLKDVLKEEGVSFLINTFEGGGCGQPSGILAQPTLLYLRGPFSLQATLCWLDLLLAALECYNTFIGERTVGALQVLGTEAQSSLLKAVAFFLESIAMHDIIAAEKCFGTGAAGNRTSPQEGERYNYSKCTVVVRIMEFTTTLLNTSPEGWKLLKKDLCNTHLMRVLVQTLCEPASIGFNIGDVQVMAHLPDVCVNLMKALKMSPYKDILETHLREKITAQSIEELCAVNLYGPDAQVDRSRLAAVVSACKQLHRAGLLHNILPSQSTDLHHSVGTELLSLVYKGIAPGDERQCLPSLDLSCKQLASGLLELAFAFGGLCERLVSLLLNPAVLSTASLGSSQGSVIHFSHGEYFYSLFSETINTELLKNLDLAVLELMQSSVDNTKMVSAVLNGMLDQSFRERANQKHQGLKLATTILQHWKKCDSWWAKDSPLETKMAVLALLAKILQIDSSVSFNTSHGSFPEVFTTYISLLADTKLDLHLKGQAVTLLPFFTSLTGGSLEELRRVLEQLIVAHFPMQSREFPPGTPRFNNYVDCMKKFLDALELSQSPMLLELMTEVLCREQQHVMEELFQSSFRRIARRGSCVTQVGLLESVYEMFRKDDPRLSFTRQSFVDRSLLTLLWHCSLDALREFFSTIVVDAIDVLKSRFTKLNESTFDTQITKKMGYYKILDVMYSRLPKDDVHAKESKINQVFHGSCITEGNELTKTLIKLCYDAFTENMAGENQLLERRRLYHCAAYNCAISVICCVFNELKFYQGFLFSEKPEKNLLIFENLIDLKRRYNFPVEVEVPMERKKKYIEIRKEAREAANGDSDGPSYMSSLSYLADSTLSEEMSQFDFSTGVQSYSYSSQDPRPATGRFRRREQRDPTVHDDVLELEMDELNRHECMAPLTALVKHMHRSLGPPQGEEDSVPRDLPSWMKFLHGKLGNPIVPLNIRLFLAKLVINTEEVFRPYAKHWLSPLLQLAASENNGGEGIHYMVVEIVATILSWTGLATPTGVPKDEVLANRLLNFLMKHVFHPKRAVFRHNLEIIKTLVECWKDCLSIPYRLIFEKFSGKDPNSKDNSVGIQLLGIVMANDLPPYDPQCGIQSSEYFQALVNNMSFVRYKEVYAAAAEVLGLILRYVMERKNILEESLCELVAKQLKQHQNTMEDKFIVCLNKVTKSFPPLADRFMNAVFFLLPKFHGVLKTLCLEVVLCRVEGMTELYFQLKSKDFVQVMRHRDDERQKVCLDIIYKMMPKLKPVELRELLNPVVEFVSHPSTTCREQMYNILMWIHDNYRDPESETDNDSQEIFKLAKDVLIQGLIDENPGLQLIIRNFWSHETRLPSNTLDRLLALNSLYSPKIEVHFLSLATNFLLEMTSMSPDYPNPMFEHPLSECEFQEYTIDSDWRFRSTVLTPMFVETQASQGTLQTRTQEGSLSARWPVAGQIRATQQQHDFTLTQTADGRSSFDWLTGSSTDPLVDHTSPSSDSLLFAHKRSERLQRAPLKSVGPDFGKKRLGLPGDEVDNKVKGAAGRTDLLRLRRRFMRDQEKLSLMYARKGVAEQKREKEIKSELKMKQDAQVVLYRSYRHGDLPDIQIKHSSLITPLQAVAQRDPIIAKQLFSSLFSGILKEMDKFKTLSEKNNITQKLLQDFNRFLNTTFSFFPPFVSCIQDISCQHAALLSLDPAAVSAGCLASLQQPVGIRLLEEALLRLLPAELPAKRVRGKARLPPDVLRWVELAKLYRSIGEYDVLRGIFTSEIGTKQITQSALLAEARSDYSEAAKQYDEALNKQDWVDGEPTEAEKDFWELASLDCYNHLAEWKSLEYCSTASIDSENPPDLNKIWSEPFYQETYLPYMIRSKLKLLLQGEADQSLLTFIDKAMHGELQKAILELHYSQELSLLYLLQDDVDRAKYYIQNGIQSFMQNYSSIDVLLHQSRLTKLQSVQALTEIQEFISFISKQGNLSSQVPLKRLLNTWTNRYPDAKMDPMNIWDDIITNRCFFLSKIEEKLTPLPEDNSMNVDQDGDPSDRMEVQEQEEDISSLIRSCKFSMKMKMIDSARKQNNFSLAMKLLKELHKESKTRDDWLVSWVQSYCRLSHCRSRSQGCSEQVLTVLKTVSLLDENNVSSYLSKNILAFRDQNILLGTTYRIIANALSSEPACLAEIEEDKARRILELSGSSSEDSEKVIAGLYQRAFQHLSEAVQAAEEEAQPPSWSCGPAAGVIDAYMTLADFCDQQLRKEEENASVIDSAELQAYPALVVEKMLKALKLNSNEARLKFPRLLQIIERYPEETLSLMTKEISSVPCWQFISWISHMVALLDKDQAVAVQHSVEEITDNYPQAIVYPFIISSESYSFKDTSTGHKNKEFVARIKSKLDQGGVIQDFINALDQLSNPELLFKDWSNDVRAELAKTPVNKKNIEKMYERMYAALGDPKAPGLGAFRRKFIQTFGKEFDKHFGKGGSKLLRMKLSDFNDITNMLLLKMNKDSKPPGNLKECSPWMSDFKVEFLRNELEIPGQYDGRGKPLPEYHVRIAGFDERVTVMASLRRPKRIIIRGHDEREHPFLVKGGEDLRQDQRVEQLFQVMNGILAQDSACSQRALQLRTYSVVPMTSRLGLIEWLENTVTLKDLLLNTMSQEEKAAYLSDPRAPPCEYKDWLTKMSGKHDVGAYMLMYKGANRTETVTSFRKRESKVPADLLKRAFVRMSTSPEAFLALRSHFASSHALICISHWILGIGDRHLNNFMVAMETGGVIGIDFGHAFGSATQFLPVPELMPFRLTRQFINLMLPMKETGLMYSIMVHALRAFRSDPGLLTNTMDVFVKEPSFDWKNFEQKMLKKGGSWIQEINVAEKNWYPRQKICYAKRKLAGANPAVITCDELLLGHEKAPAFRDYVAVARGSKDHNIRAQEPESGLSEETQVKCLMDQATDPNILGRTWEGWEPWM
Sequence of Phosphatidylinositol 4,5-bisphosphate 3-kinase catalytic subunit alpha isoform (P42336 whole entry, canonical isoform): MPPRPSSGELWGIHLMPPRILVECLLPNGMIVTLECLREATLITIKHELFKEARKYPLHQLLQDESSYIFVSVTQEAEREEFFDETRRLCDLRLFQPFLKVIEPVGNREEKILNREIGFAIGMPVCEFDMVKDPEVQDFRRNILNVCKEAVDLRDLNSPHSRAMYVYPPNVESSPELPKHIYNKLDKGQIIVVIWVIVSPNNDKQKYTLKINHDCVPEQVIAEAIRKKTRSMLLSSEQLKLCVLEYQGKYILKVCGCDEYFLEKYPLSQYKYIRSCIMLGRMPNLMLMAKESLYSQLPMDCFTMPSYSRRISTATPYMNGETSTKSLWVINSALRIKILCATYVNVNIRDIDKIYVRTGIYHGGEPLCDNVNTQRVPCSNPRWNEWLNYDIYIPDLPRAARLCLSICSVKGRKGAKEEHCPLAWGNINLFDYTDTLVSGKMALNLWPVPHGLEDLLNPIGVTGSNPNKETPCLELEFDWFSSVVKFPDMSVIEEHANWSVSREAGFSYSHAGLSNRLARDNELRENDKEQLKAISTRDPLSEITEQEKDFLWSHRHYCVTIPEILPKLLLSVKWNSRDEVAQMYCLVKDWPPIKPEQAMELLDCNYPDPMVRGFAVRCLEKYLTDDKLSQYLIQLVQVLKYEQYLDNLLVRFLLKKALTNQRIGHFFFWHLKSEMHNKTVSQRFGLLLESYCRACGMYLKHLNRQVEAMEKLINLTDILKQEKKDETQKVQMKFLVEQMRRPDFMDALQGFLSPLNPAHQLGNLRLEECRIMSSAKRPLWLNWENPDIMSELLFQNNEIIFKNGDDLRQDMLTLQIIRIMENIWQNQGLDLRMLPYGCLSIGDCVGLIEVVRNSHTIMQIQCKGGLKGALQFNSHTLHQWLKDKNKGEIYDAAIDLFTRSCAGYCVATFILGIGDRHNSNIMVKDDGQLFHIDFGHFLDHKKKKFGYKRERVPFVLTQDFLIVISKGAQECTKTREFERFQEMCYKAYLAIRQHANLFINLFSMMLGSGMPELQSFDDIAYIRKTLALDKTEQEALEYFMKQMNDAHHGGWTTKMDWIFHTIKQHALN

Row | SMILES | logD [1] | solubility [2] | Papp A→B at […], 0.1 µM [3] | Papp A→B at […], 1 µM [4] | hepatocyte CLint [5] | hepatocyte CLint [6] | IC50 [7] | IC50 [8] | IC50 [9] | fraction unbound at 16 h [11] | fraction unbound at 16 h [12] | fraction unbound at 16 h [13] | Vdss [14] | bioavailability [16] | Vdss [17] | bioavailability [19] | also measured
1 | COCc1ccc(-c2ccc3ncc4c(c3c2)n([C@H]2CCCOC2)c(=O)n4C)cn1 | 2.5 | 125 µM (≈ 50.6 µg/mL) | 35 ×10⁻⁶ cm/s | 27 ×10⁻⁶ cm/s | 3.2 µL/min/1e6 cells | 28 µL/min/1e6 cells | – | – | – | – | – | – | – | – | – | – | –
2 | CC(C)n1c(=O)n(C)c2cnc3ccc(-c4ccc(OC[C@@H]5CCN(C)C5)nc4)cc3c21 | 1.7 | > 1000 µM | 15 ×10⁻⁶ cm/s | 23 ×10⁻⁶ cm/s | 5.7 µL/min/1e6 cells | 15 µL/min/1e6 cells | > 31.6 µM | – | – | – | – | – | – | – | – | – | –
3 | CC(C)n1c(=O)n(C)c2cnc3cc(F)c(-c4ccc(OCCCN(C)C)nc4)cc3c21 | 2.1 | 680 µM (≈ 298 µg/mL) | 23 ×10⁻⁶ cm/s | 56 ×10⁻⁶ cm/s | 6.7 µL/min/1e6 cells | 13 µL/min/1e6 cells | > 31.6 µM | 15.8 µM | > 31.6 µM | 0.17 | 0.42 | 0.32 | 4.1 L/kg | 48% | 18 L/kg | 31% | IC50 [10]: > 31.6 µM; half-life [15]: 3.2 h; half-life [18]: 6.4 h
4 | CO[C@H]1C[C@H](n2c(=O)n(C)c3cnc4ccc(-c5ccc(OCCCN6CCCCC6)nc5)cc4c32)C1 | 2.4 | > 1000 µM | 17 ×10⁻⁶ cm/s | – | 2.6 µL/min/1e6 cells | 6.6 µL/min/1e6 cells | – | 2 µM | > 1.26 µM | 0.04 | 0.22 | 0.19 | 2.4 L/kg | 19% | – | – | half-life [15]: 4 h
5 | CC(C)n1c(=O)n(C)c2cnc3ccc(-c4ccc(OCCCN(C)C)cc4)cc3c21 | 2.7 | 323 µM (≈ 135 µg/mL) | – | 24 ×10⁻⁶ cm/s | 18 µL/min/1e6 cells | 46 µL/min/1e6 cells | > 31.6 µM | – | – | – | – | – | – | – | – | – | –
6 | CC(C)n1c(=O)n(C)c2cnc3cc(F)c(-c4ccc(OCCCN5CCCCC5)nc4)cc3c21 [AZD-1390] | – | 693 µM (≈ 331 µg/mL) | 17 ×10⁻⁶ cm/s | 24 ×10⁻⁶ cm/s | – | – | > 31.6 µM | > 12.6 µM | > 15.8 µM | 0.04 | 0.25 | 0.26 | 3 L/kg | 74% | 24 L/kg | 66% | IC50 [20]: 0.000794 µM; IC50 [10]: > 31.6 µM
7 | CC(C)n1c(=O)n(C)c2cnc3ccc(-c4ccc(O[C@H]5CCN(C)C5)nc4)cc3c21 | 2.4 | > 1000 µM | – | 27 ×10⁻⁶ cm/s | 6.2 µL/min/1e6 cells | 15 µL/min/1e6 cells | – | – | – | – | – | – | – | – | – | – | –
8 | CN(C)CCCOc1ccc(-c2ccc3ncc4c(c3c2)n(C2CCOCC2)c(=O)n4C)cn1 | – | – | – | – | – | – | – | – | – | – | – | – | 4.3 L/kg | 57% | 18 L/kg | 54% | pKa [21]: 9.4
9 | COCc1ccc(-c2ccc3ncc4c(c3c2)n([C@@H]2CCOCC2(C)C)c(=O)n4C)cn1 | 2.7 | 521 µM (≈ 225 µg/mL) | 39 ×10⁻⁶ cm/s | – | < 1 µL/min/1e6 cells | 12 µL/min/1e6 cells | – | > 5.01 µM | 0.501 µM | 0.14 | 0.23 | 0.08 | 1.9 L/kg | 39% | 3.7 L/kg | 9% | IC50 [10]: 1.58 µM; half-life [15]: 1.1 h; half-life [18]: 3.3 h
10 | COCc1ccc(-c2ccc3ncc4c(c3c2)n(C2CCOCC2)c(=O)n4C)cn1 | 2.3 | 19 µM (≈ 7.68 µg/mL) | – | – | < 3 µL/min/1e6 cells | – | > 12.6 µM | – | – | – | – | – | – | – | – | – | –
11 | CC(C)n1c(=O)n(C)c2cnc3cc(F)c(-c4ccc(N5CCC(N(C)C)CC5)nc4)cc3c21 | 2.4 | 787 µM (≈ 364 µg/mL) | 9.4 ×10⁻⁶ cm/s | 22 ×10⁻⁶ cm/s | 2.4 µL/min/1e6 cells | 6.3 µL/min/1e6 cells | > 31.6 µM | – | – | – | – | – | – | – | – | – | pKa [21]: 9.1
12 | CN(C)CCCOc1ccc(-c2ccc3ncc4c(c3c2)n(C2CCOCC2)c(=O)n4[11CH3])cn1 | – | – | – | – | – | – | – | – | – | – | – | – | – | – | – | – | Tmax [22]: 0.333 h
13 | CC(C)n1c(=O)n(C)c2cnc3ccc(-c4ccc(OCCCN5CCCCC5)nc4)cc3c21 | 2.6 | 826 µM (≈ 380 µg/mL) | – | 25 ×10⁻⁶ cm/s | 2.4 µL/min/1e6 cells | 5.8 µL/min/1e6 cells | – | – | – | – | – | – | – | – | – | – | –
